Consider 23 compounds from patent US10618903B2, “Heteroaryl substituted aminopyridine compounds” (BRISTOL-MYERS SQUIBB COMPANY, priority 2015, dated 2020).

The Papp is a coefficient for how fast a substance crosses the barrier. High values mean ready permeation, low ones poor permeation. A word on the EC50: it is the concentration giving half of the maximal effect. For orientation: IC50 means the concentration at which inhibition is half-maximal.

One data set can be described thus: Caco Permeability Assay. In kind it is in vitro ADME. Particulars: human, Caco-2, Caco-2 cells, 3 μM compound. Background: Caco-2 cells form a polarised layer with tight junctions and transporters.
Data set [1] concerns IL-6 levels in human whole blood stimulated with a TLR2 agonist. Description: IRAK4 Whole Blood Assay (lipoteichoic acid/TLR2-stimulated IL-6). Particulars: lipoteichoic acid 10 μg/mL, IL-6 readout. The format is cell-based. The procedure, abridged:
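IL-6 was quantified by cytometric bead assay in supernatants of human blood (ACD-A) stimulated for 5 h with lipoteichoic acid at 10 μg/mL final. Compound exposure preceded stimulation for 60 min at 37 °C, 5% CO2.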

For a further data set, the target named is IRAK4 (Homo sapiens (Human), UniProt Q9NWZ3). The data set can be described thus: IRAK4 Inhibition Assay. In kind it is biochemical. As to conditions: ATP 500 μM; IRAK4 0.6 nM. The procedure, abridged: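 Readout: electrophoretic (LabChip) separation of fluorescent peptide substrate from phosphorylated product after EDTA quench. Reactions ran 60 min at room temperature with 0.6 nM IRAK4, 1.5 μM peptide and 500 μM ATP; inhibition referenced to no-enzyme (100%) and vehicle (0%) controls.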
Chain of IRAK4 (Q9NWZ3 whole entry): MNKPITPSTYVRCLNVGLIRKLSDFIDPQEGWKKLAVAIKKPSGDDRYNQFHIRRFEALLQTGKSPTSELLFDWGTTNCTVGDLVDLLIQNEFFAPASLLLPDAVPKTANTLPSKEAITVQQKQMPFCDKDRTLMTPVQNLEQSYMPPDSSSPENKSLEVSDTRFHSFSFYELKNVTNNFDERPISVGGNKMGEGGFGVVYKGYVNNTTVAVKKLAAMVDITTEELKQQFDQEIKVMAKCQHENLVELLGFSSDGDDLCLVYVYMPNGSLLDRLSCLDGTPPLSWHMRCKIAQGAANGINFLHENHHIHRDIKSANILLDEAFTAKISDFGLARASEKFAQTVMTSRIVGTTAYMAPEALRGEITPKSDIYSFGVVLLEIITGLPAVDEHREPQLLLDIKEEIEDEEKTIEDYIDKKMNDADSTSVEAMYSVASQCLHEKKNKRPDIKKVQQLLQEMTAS

With `CC(C)(O)[C@H](F)CNC(=O)c1cnc(-c2cnc3cc(Cl)cnn23)cc1NC1CCC1` [Example 180, (R)-6-(7-chloroimidazo[1,2-b]pyridazin-3-yl)-4-(cyclobutylamino)-N-(2-fluoro-3-hydroxy-3-methylbutyl)nicotinamide], in “Caco Permeability Assay”, the Papp at 2 h, 3 µM was found to be 16.5 ×10⁻⁶ cm/s. The same compound registered an EC50 in data set [1] (Homo sapiens) of 930 nM. For the same compound, the IC50 on IRAK4 was 2 nM.
The corresponding values for `C[C@@H](CO)Nc1cc(-c2cnc3cc(Cl)cnn23)ncc1C(=O)NC[C@@H](F)C(C)(C)O` [Example 181, 6-(7-chloroimidazo[1,2-b]pyridazin-3-yl)-N—((R)-2-fluoro-3-hydroxy-3-methylbutyl)-4-(((S)-1-hydroxypropan-2-yl)amino)nicotinamide] are below 1.5 ×10⁻⁶ cm/s, 100 nM and 3 nM.
For `CC(C)(O)[C@H](F)CNC(=O)c1cnc(-c2cnc3cc(C#N)cnn23)cc1NC1CCC1` [Example 183, (R)-6-(7-cyanoimidazo[1,2-b]pyridazin-3-yl)-4-(cyclobutylamino)-N-(2-fluoro-3-hydroxy-3-methylbutyl)nicotinamide], in that order: 8.9 ×10⁻⁶ cm/s, 750 nM and 2 nM.
Take `Cc1cnn2c(-c3cc(NC4CC4)c(C(=O)NC[C@@H](F)C(C)(C)O)cn3)cnc2c1` [Example 184, (R)-4-(cyclopropylamino)-N-(2-fluoro-3-hydroxy-3-methylbutyl)-6-(7-methylimidazo[1,2-b]pyridazin-3-yl)nicotinamide]: in the data set “Caco Permeability Assay”, the Papp at 2 h, 3 µM came out at 3.4 ×10⁻⁶ cm/s. Further, in data set [1] (Homo sapiens), the concentration giving a half-maximal response (EC50) came to 510 nM. Also, the IC50 on IRAK4 was determined as 5 nM.
`Cc1cnn2c(-c3cc(NC4CCC4)c(C(=O)NC[C@@H](F)C(C)(C)O)cn3)cnc2c1` [Example 185, (R)-4-(cyclobutylamino)-N-(2-fluoro-3-hydroxy-3-methylbutyl)-6-(7-methylimidazo[1,2-b]pyridazin-3-yl)nicotinamide] yielded a Papp at 2 h, 3 µM in “Caco Permeability Assay” of 4.7 ×10⁻⁶ cm/s. The compound further had an EC50 in data set [1] (Homo sapiens) of 820 nM. Further, the IC50 on IRAK4 is 7 nM.
Turning to `CC(C)Nc1cc(-c2cnc3cc(C#N)cnn23)ncc1C(=O)NCCC(C)(C)O` [Example 186, 6-(7-cyanoimidazo[1,2-b]pyridazin-3-yl)-N-(3-hydroxy-3-methylbutyl)-4-(isopropylamino) nicotinamide], the Papp at 2 h, 3 µM in “Caco Permeability Assay” worked out at 12.2 ×10⁻⁶ cm/s. Also, the response in data set [1] (Homo sapiens) was half-maximal at 250 nM (EC50). In addition, on IRAK4, the IC50 came out at 5 nM.
`CCNc1cc(-c2cnc3cc(C#N)cnn23)ncc1C(=O)NC[C@@H](F)C(C)(C)O` [Example 188, (R)-6-(7-cyanoimidazo[1,2-b]pyridazin-3-yl)-4-(ethylamino)-N-(2-fluoro-3-hydroxy-3-methylbutyl)nicotinamide]: the Papp at 2 h, 3 µM in “Caco Permeability Assay” stood at 6.7 ×10⁻⁶ cm/s. This compound also showed an EC50 in data set [1] (Homo sapiens) of 240 nM. The IC50 at IRAK4 was 5 nM.
Regarding `CC(C)(F)[C@H](F)CNC(=O)c1cnc(-c2cnc3cc(Cl)cnn23)cc1NC1COC1` [Example 189, (R)-6-(7-chloroimidazo[1,2-b]pyridazin-3-yl)-N-(2,3-difluoro-3-methylbutyl)-4-(oxetan-3-ylamino)nicotinamide], the Papp at 2 h, 3 µM in the data set “Caco Permeability Assay” was found to be 31.2 ×10⁻⁶ cm/s. In addition, the EC50 in data set [1] (Homo sapiens) came out at 490 nM. Further, the half-inhibitory concentration (IC50) at IRAK4 was found to be 7 nM.
For `CC(C)(O)[C@H](F)CNC(=O)c1cnc(-c2cnc3cc(Cl)cnn23)cc1NCCC(F)(F)F` [Example 190, (R)-6-(7-chloroimidazo[1,2-b]pyridazin-3-yl)-N-(2-fluoro-3-hydroxy-3-methylbutyl)-4-((3,3,3-trifluoropropyl)amino)nicotinamide], the Papp at 2 h, 3 µM in the data set “Caco Permeability Assay” stood at 15.3 ×10⁻⁶ cm/s. The midpoint of the response in data set [1] (Homo sapiens), the EC50, lay at 610 nM. Further, the IC50 at IRAK4 stood at 6 nM.
`CC(C)(C)CCNC(=O)c1cnc(-c2cnc3cc(Cl)cnn23)cc1NC1COC1` [Example 192, 6-(7-chloroimidazo[1,2-b]pyridazin-3-yl)-N-(3,3-dimethylbutyl)-4-(oxetan-3-ylamino)nicotinamide] returned a Papp at 2 h, 3 µM in “Caco Permeability Assay” of 29.9 ×10⁻⁶ cm/s. In data set [1] (Homo sapiens), this compound displayed a 50% effective concentration (EC50) of 500 nM. Moreover, the IC50 on IRAK4 came out at 10 nM.
The corresponding values for `CC(C)Nc1cc(-c2cnc3cc(C#N)cnn23)ncc1C(=O)NC[C@H](F)C(C)(C)O` [Example 194, (S)-6-(7-cyanoimidazo[1,2-b]pyridazin-3-yl)-N-(2-fluoro-3-hydroxy-3-methylbutyl)-4-(isopropylamino)nicotinamide] are 4.2 ×10⁻⁶ cm/s, 230 nM and 8 nM.
For `CC(C)(O)[C@H](F)CNC(=O)c1cnc(-c2cnc3cc(C#N)cnn23)cc1NC1CC(F)(F)C1` [Example 195, (R)-6-(7-cyanoimidazo[1,2-b]pyridazin-3-yl)-4-((3,3-difluorocyclobutyl)amino)-N-(2-fluoro-3-hydroxy-3-methylbutyl)nicotinamide], in that order: 3.7 ×10⁻⁶ cm/s, 700 nM and 4 nM.
In turn, `CC(C)Nc1cc(-c2cnc3cc(C#N)cnn23)ncc1C(=O)NCC(F)C1CCNCC1` (stereo not drawn) [Example 197, 6-(7-cyanoimidazo[1,2-b]pyridazin-3-yl)-N-(2-fluoro-2-(piperidin-4-yl)ethyl)-4-(isopropylamino)nicotinamide] showed a Papp at 2 h, 3 µM in “Caco Permeability Assay” below 1.5 ×10⁻⁶ cm/s. This compound also had an EC50 in data set [1] (Homo sapiens) of 280 nM. In addition, the IC50 on IRAK4 came to 2 nM.
The corresponding values for `CC1(Nc2cc(-c3cnc4cc(Cl)cnn34)ncc2C(=O)NC[C@H](F)C(C)(C)O)CC1` [Example 198, (S)-6-(7-chloroimidazo[1,2-b]pyridazin-3-yl)-N-(2-fluoro-3-hydroxy-3-methylbutyl)-4-((1-methylcyclopropyl)amino) nicotinamide] are 18.4 ×10⁻⁶ cm/s, 470 nM and 1 nM.
In the case of `CC(C)(O)[C@H](F)CNC(=O)c1cnc(-c2cnc3cc(Cl)cnn23)cc1NC1CC(F)C1` (stereo partly drawn) [Example 199, (R)-6-(7-chloroimidazo[1,2-b]pyridazin-3-yl)-N-(2-fluoro-3-hydroxy-3-methylbutyl)-4-((3-fluorocyclobutyl)amino)nicotinamide], the Papp at 2 h, 3 µM in the data set “Caco Permeability Assay” turned out to be 15.8 ×10⁻⁶ cm/s. For the same compound, the EC50 in data set [1] (Homo sapiens) stood at 550 nM. Further, the IC50 on IRAK4 worked out at 4 nM.
On to `CC(C)(O)[C@H](F)CNC(=O)c1cnc(-c2cnc3cc(C#N)cnn23)cc1NC1CCOC1` (stereo partly drawn) [Example 201, 6-(7-cyanoimidazo[1,2-b]pyridazin-3-yl)-N—((R)-2-fluoro-3-hydroxy-3-methylbutyl)-4-((tetrahydrofuran-3-yl)amino) nicotinamide], for which the Papp at 2 h, 3 µM in the data set “Caco Permeability Assay” was below 1.5 ×10⁻⁶ cm/s. Also, in data set [1] (Homo sapiens), the EC50 is 80 nM. The IC50 on IRAK4 was found to be 3 nM.
Turning to `CC(C)(O)[C@H](F)CNC(=O)c1cnc(-c2cnc3cc(C#N)cnn23)cc1NCCC(F)(F)F` [Example 205, (R)-6-(7-cyanoimidazo[1,2-b]pyridazin-3-yl)-N-(2-fluoro-3-hydroxy-3-methylbutyl)-4-((3,3,3-trifluoropropyl)amino)nicotinamide], in the data set “Caco Permeability Assay”, the Papp at 2 h, 3 µM came out at 4.5 ×10⁻⁶ cm/s. Besides, the EC50 in data set [1] (Homo sapiens) came out at 210 nM. Also, the IC50 at IRAK4 is 4 nM.
Take `CC(C)Nc1cc(-c2cnc3cc(C#N)cnn23)ncc1C(=O)NCCc1ccccn1` [Example 216, 6-(7-cyanoimidazo[1,2-b]pyridazin-3-yl)-4-(isopropylamino)-N-(2-(pyridin-2-yl)ethyl)nicotinamide]: in the data set “Caco Permeability Assay”, the Papp at 2 h, 3 µM is 23.9 ×10⁻⁶ cm/s. In data set [1] (Homo sapiens), this compound displayed an EC50 of 310 nM. Besides, at IRAK4, the half-inhibitory concentration (IC50) came out at 8 nM.
Compound `CC(C)Nc1cc(-c2cnc3cc(C#N)cnn23)ncc1C(=O)NCCC1(O)CCCC1` [Example 217, 6-(7-cyanoimidazo[1,2-b]pyridazin-3-yl)-N-(2-(1-hydroxycyclopentyl)ethyl)-4-(isopropylamino)nicotinamide] registered a Papp at 2 h, 3 µM in the data set “Caco Permeability Assay” of 25.6 ×10⁻⁶ cm/s. The 50% effective concentration (EC50) in data set [1] (Homo sapiens) was 300 nM. At IRAK4, the IC50 stood at 2 nM.
For `CC(C)(O)CCNC(=O)c1cnc(-c2cnc3cc(Cl)cnn23)cc1NC1COC1` [Example 218, 6-(7-chloroimidazo[1,2-b]pyridazin-3-yl)-N-(3-hydroxy-3-methylbutyl)-4-(oxetan-3-ylamino)nicotinamide], in that order: 2.1 ×10⁻⁶ cm/s, 220 nM and 5 nM.
For `CC(C)(O)[C@H](F)CNC(=O)c1cnc(-c2cnn3cc(Cl)cnc23)cc1Nc1cnn(CC(F)(F)F)c1` [Example 226, (R)-6-(6-chloropyrazolo[1,5-a]pyrimidin-3-yl)-N-(2-fluoro-3-hydroxy-3-methylbutyl)-4-((1-(2,2,2-trifluoroethyl)-1H-pyrazol-4-yl)amino)nicotinamide], the Papp at 2 h, 3 µM in the data set “Caco Permeability Assay” is 3.6 ×10⁻⁶ cm/s. Further, it took 210 nM to reach a half-maximal effect in data set [1] (EC50). Further, at IRAK4, the IC50 stood at 3 nM.
As for `CC(C)(F)Cn1cc(Nc2cc(-c3cnn4cc(Cl)cnc34)ncc2C(=O)NC[C@@H](F)C(C)(C)O)cn1` [Example 227, (R)-6-(6-chloropyrazolo[1,5-a]pyrimidin-3-yl)-4-((1-(2-fluoro-2-methylpropyl)-1H-pyrazol-4-yl)amino)-N-(2-fluoro-3-hydroxy-3-methylbutyl)nicotinamide], the Papp at 2 h, 3 µM in the data set “Caco Permeability Assay” was determined as 4 ×10⁻⁶ cm/s. Further, in data set [1] (Homo sapiens), the EC50 is 170 nM. The IC50 on IRAK4 was determined as 2 nM.
The corresponding values for `CC(C)(F)Cn1ccc(Nc2cc(-c3cnn4cc(Cl)cnc34)ncc2C(=O)NC[C@@H](F)C(C)(C)O)n1` [Example 229, (R)-6-(6-chloropyrazolo[1,5-a]pyrimidin-3-yl)-4-((1-(2-fluoro-2-methylpropyl)-1H-pyrazol-3-yl)amino)-N-(2-fluoro-3-hydroxy-3-methylbutyl)nicotinamide] are 11.3 ×10⁻⁶ cm/s, 580 nM and 9 nM.
